Data: PMC11376277, “Crystallographic fragment screen of the c-di-AMP-synthesizing enzyme CdaA from Bacillus subtilis” (Acta Crystallographica Section F: Structural Biology …, 2024)

Target: T1, EfCdaA (Enterococcus faecium, UniProt Q3Y0C9)
T1 construct: gene dacA; N-terminally truncated soluble DAC domain; codon-optimized synthetic DNA, pET-28a, E. coli Rosetta (DE3); tag cut with PreScission
T1 sequence (Q3Y0C9 121-269): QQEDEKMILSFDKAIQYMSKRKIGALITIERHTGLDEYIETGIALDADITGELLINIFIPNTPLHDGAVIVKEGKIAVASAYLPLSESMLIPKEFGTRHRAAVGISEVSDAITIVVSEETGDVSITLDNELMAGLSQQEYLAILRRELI
Assay: ITC, […] binding model
Details: 25 C, pH 7.5, 20 mM Tris-HCl, 300 mM NaCl, 5% DMSO, 10 mM MgCl2

Compound | Kd [µM]
Nc1ncnc2c1ncn2[C@@H]1O[C@H](COP(=O)(O)OP(=O)(O)OP(=O)(O)O)[C@@H](O)[C@H]1O [ATP] | 237
CC(C)OC(=O)OCOP(=O)(CO[C@H](C)Cn1cnc2c(N)ncnc21)OCOC(=O)OC(C)C [tenofovir disoproxil] | 7.91
